Experimental findings from patent EP4768484A1, “HETEROCYCLIC FUSED RING COMPOUND, AND COMPOSITION AND USE THEREOF” (Shenzhen TargetRx, Inc., priority 2023, dated 2025) are described below.

Where only a bound is given, the exact number is not on record here.

Common to all, as to type: cell-based
Test [1] has as its system K562 cells. The experiment in a line: Cell growth inhibitory activity assay (CellTiter-Glo), K562 cells. As to conditions: Homo sapiens, 72 h, CTG cell viability. The method, boiled down:
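Growth inhibition of human K562 cells, sourced from Nanjing Kebai (CBP60529), was assessed with Promega's CellTiter-Glo kit, which measures viability through ATP quantification. Log-phase cells went into the inner wells of 96-well plates, with PBS in edge wells, incubated overnight at 37 °C and 5% CO2, then exposed to serially diluted compound for 72 h.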

The target in test [2] is T1, Ba/F3 BCR-ABL1 WT (Homo sapiens, UniProt P00519+P11274).
T1 construct: BCR (N-terminal fusion partner of the oncoprotein); expressed in transfected cells; host or cells: Ba/F3 (lentiviral transduction, monoclonal line)
The experiment in a line: Cell growth inhibitory activity assay (CellTiter-Glo), Ba/F3 BCR-ABL1 WT cells. The settings on record: 72 h, CTG cell viability. The method in brief: (§1)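 Ba/F3 lines stably transduced by lentivirus with WT or mutant BCR-ABL1, alongside untransduced parental Ba/F3, were seeded and incubated overnight at 37 °C, 5% CO2, then exposed to serially diluted compound for 72 h. Viability was read as ATP by CellTiter-Glo luminescence against a day-of-dosing T0 plate; IC50 from four-parameter nonlinear fit.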

In test [3] the target is T2, Ba/F3 BCR-ABL1 T315I (Homo sapiens, UniProt P00519+P11274, T315I).
T2 construct: BCR (N-terminal fusion partner of the oncoprotein); expressed in transfected cells; host or cells: Ba/F3 (lentiviral transduction, monoclonal line)
The experiment in a line: Cell growth inhibitory activity assay (CellTiter-Glo), Ba/F3 BCR-ABL1 T315I cells. The settings on record: 72 h, CTG cell viability. The method, boiled down: as §1

The test system of test [4] is Ba/F3 parental cells. The experiment in a line: Cell growth inhibitory activity assay (CellTiter-Glo), Ba/F3 parental cells. As to conditions: Mus musculus, BaF3, 72 h, CTG cell viability, read-out: IC50 Ba/F3 BCR-ABL1 Parental. The method, boiled down: as §1

For `C[C@@H]1COCc2nc3cc(C(=O)Nc4ccc(OC(F)(F)Cl)cc4)cc(-c4cnc5c(c4)-c4nn(C(=O)C6CC6)cc4C5)c3n21` [T-47, (R)-N-(4-(chlorodifluoromethoxy)phenyl)-6-(2-(cyclopropylcarbonyl)-2,4-dihydropyrazolo[3',4':3,4]cyclopenta[1,2-b]pyridin-7-yl)-4-methyl-3,4-dihydro-1H-benzo[4,5]imidazo[2,1-c][1,4]oxazine-8-carboxamide], the IC50 in test [1] was at most 5 nM; in test [2] it was at most 5 nM; in test [3] it was at most 5 nM; in test [4], over 1000 nM.

Take `O=C(Nc1ccc(OC(F)(F)Cl)cc1)c1cnc(N2CC[C@@H](F)C2)c(-c2cnc3c(c2)-c2nn(-c4ncc(N5CC[C@@H](F)C5)cn4)cc2C3)c1` [T-50, N-(4-(chlorodifluoromethoxy)phenyl)-6-((R)-3-fluoropyrrolidin-1-yl)-5-(2-(5-((R)-3-fluoropyrrolidin-1-yl)pyrimidin-2-yl)-2,4-dihydropyrazolo[3',4':3,4]cyclopenta[1,2-b]pyridin-7-yl)nicotinamide]: the IC50 in test [1] is at most 5 nM; in test [2], at most 5 nM; in test [3], 5 to 50 nM; in test [4], over 1000 nM.

In the case of `[2H]C([2H])([2H])n1cc2c(n1)-c1cc(-c3cc(C(=O)Nc4ccc(OC(F)(F)Cl)cc4)cc4nc5n(c34)[C@H](C)COC5)cnc1C2` [T-53, (R)-N-(4-(chlorodifluoromethoxv)phenyl)-4-methyl-6-(2-(methyl-d3)-2,4-dihydropyrazolo[3',4':3,4]cyclopenta[1,2-b]pyridin-7-yl)-3,4-dihydro-1H-benzo[4,5]imidazo[2,1-c][1,4]oxazine-8-carboxamide], the IC50 in test [1] was at most 5 nM; in test [2] it was at most 5 nM; in test [3] it was at most 5 nM; in test [4], over 1000 nM.

In the case of `O=C(Nc1ccc(OC(F)(F)Cl)cc1)c1cnc(N2CC[C@@H](F)C2)c(-c2cnc3c(c2)-c2nn(-c4ncc(N5CC[C@H](F)C5)cn4)cc2C3)c1` [T-55, N-(4-(chlorodifluoromethoxy)phenyl)-6-((R)-3-fluoropyrrolidin-1-yl)-5-(2-(5-((S)-3-fluoropyrrolidin-1-yl)pyrimidin-2-yl)-2,4-dihydropyrazolo[3',4':3,4]cyclopenta[1,2-b]pyridin-7-yl)nicotinamide], the IC50 in test [1] is at most 5 nM; in test [2] it was at most 5 nM; in test [3] it was 5 to 50 nM; in test [4] it was over 1000 nM.

Consider `C[C@@H]1COCc2nc3cc(C(=O)Nc4ccc(OC(F)(F)Cl)cc4)cc(-c4cnc5c(c4)-c4nn(CCOC(C)(C)C)cc4C5)c3n21` [T-56-A, (R)-6-(2-(2-(tert-butoxy)ethyl)-2,4-dihydropyrazolo[3',4':3,4]cyclopenta[1,2-b]pyridin-7-yl)-N-(4-(chlorodifluoromethoxy)phenyl)-4-methyl-3,4-dihydro-1H-benzo[4,5]imidazo[2,1-c][1,4]oxazine-8-carboxamide], for which the IC50 in test [1] was 5 to 50 nM; in test [2], 50 to 1000 nM; in test [3] it was over 1000 nM; in test [4], over 1000 nM.

As for `C[C@@H]1COCc2nc3cc(C(=O)Nc4ccc(OC(F)(F)Cl)cc4)cc(-c4cnc5c(c4)-c4c(cnn4CCOC(C)(C)C)C5)c3n21` [T-56-B, (R)-6-(1-(2-(tert-butoxy)ethyl)-1,4-dihydropyrazolo[3',4':3,4]cyclopenta[1,2-b]pyridin-7-yl)-N-(4-(chlorodifluoromethoxy)phenyl)-4-methyl-3,4-dihydro-1H-benzo[4,5]imidazo[2,1-c][1,4]oxazine-8-carboxamide], the IC50 is at most 5 nM in test [1], at most 5 nM in test [2], over 1000 nM in test [3] and over 1000 nM in test [4].

In the case of `C[C@@H]1COCc2nc3cc(C(=O)Nc4ccc(OC(F)(F)Cl)cc4)cc(-c4cnc5c(c4)C(=O)CC5)c3n21` [T-58, (R)-N-(4-(chlorodifluoromethoxy)phenyl)-4-methyl-6-(5-oxo-6,7-dihydro-5H-cyclopenta[b]pyridin-3-yl)-3,4-dihydro-1H-benzo[4,5]imidazo[2,1-c][1,4]oxazine-8-carboxamide], the IC50 in test [1] was at most 5 nM; in test [2] it was at most 5 nM; in test [3], 5 to 50 nM; in test [4], over 1000 nM.

`C[C@@H]1COCc2nc3cc(C(=O)Nc4ccc(OC(F)(F)Cl)cc4)cc(-c4cnc5c(c4)C(=O)/C(=C\N(C)C)C5)c3n21` [T-59, (R,Z)-N-(4-(chlorodifluoromethoxy)phenyl)-6-(6-((dimethylamino)methylene)-5-oxo-6,7-dihydro-5H-cyclopenta[b]pyridin-3-yl)-4-methyl-3,4-dihydro-1H-benzo[4,5]imidazo[2,1-c][1,4]oxazine-8-carboxamide]: the IC50 in test [1] is at most 5 nM; in test [2] it was at most 5 nM; in test [3] it was 50 to 1000 nM; in test [4] it was over 1000 nM.

For `C[C@@H]1COCc2nc3cc(C(=O)Nc4ccc(OC(F)(F)Cl)cc4)cc(-c4cnc5c(c4)-c4n[nH]cc4C5=O)c3n21` [T-60, (R)-N-(4-(chlorodifluoromethoxy)phenyl)-4-methyl-6-(4-oxo-2,4-dihydropyrazolo[3',4':3,4]cyclopenta[1,2-b]pyridin-7-yl)-3,4-dihydro-1H-benzo[4,5]imidazo[2,1-c][1,4]oxazine-8-carboxamide], the IC50 in test [1] was at most 5 nM; in test [2] it was at most 5 nM; in test [3] it was over 1000 nM; in test [4], over 1000 nM.

On to `C[C@@H]1COCc2nc3cc(C(=O)Nc4ccc(OC(F)(F)Cl)cc4)cc(-c4ccc5c(c4)C(=O)N(C)C5)c3n21` [T-61, (R)-N-(4-(chlorodifluoromethoxy)phenyl)-4-methyl-6-(2-methyl-3-oxoisoindolin-5-yl)-3,4-dihydro-1H-benzo[4,5]imidazo[2,1-c][1,4]oxazine-8-carboxamide], for which the IC50 in test [1] is at most 5 nM; in test [2] it was at most 5 nM; in test [3], 5 to 50 nM; in test [4], over 1000 nM.

Consider `C[C@@H]1COCc2nc3cc(C(=O)Nc4ccc(OC(F)(F)Cl)cc4)cc(-c4ccc5c(c4)C(=O)N(C)C5=O)c3n21` [T-62, (R)-N-(4-(chlorodifluoromethoxy)phenyl)-4-methyl-6-(2-methyl-1,3-dioxoisoindolin-5-yl)-3,4-dihydro-1H-benzo[4,5]imidazo[2,1-c][1,4]oxazine-8-carboxamide], for which the IC50 in test [1] is at most 5 nM; in test [2], 5 to 50 nM; in test [3], 50 to 1000 nM; in test [4], over 1000 nM.

On to `C[C@@H]1COCc2nc3cc(C(=O)Nc4ccc(OC(F)(F)Cl)cc4)cc(-c4cnc5c(c4)-c4nn(-c6cccnc6)cc4C5)c3n21` [T-63], for which the IC50 in test [1] is at most 5 nM; in test [2] it was at most 5 nM; in test [3] it was over 1000 nM; in test [4], over 1000 nM.

With `C[C@@H]1COCc2nc3cc(C(=O)Nc4ccc(OC(F)(F)Cl)cc4)cc(-c4cnc5c(c4)-c4nn(-c6ccncc6)cc4C5)c3n21` [T-64], the IC50 was at most 5 nM in test [1], at most 5 nM in test [2], over 1000 nM in test [3] and over 1000 nM in test [4].

`COc1nc(OC)nc(-n2cc3c(n2)-c2cc(-c4cc(C(=O)Nc5ccc(OC(F)(F)Cl)cc5)cc5nc6n(c45)[C@H](C)COC6)cnc2C3)n1` [T-70, (R)-N-(4-(chlorodifluoromethoxy)phenyl)-6-(2-(4,6-dimethoxy-1,3,5-triazin-2-yl)-2,4-dihydropyrazolo[3',4':3,4]cyclopenta[1,2-b]pyridin-7-yl)-4-methyl-3,4-dihydro-1H-benzo[4,5]imidazo[2,1-c][1,4]oxazine-8-carboxamide]: the IC50 is at most 5 nM in test [1], at most 5 nM in test [2], 5 to 50 nM in test [3] and over 1000 nM in test [4].

In the case of `C[C@@H]1COCc2nc3cc(C(=O)Nc4ccc(OC(F)(F)Cl)cc4)cc(-c4cnc5c(c4)-c4nn(-c6nccc(C(F)(F)F)n6)cc4C5)c3n21` [T-72, (R)-N-(4-(chlorodifluoromethoxy)phenyl)-4-methyl-6-(2-(4-(trifluoromethyl)pyrimidin-2-yl)-2,4-dihydropyrazolo[3',4':3,4]cyclopenta[1,2-b]pyridin-7-yl)-3,4-dihydro-1H-benzo[4,5]imidazo[2,1-c][1,4]oxazine-8-carboxamide], the IC50 in test [1] was at most 5 nM; in test [2] it was at most 5 nM; in test [3], at most 5 nM; in test [4] it was over 1000 nM.

`Cc1cnc(-n2cc3c(n2)-c2cc(-c4cc(C(=O)Nc5ccc(OC(F)(F)Cl)cc5)cc5nc6n(c45)[C@H](C)COC6)cnc2C3)nc1` [T-74, (R)-N-(4-(chlorodifluoromethoxy)phenyl)-4-methyl-6-(2-(5-methylpyrimidin-2-yl)-2,4-dihydropyrazolo[3',4':3,4]cyclopenta[1,2-b]pyridin-7-yl)-3,4-dihydro-1H-benzo[4,5]imidazo[2,1-c][1,4]oxazine-8-carboxamide]: the IC50 in test [1] is at most 5 nM; in test [2], at most 5 nM; in test [3] it was at most 5 nM; in test [4] it was over 1000 nM.
